Results from patent US20130149395A1, “Pharmaceutical Product, Method of Production and Method of Application of the Pharmaceutical Product” (priority 2010, published 2013).

Test: Stability of 2,2-dichloropropionic acid during prolonged storage (NMR impurity identification)
Assay type: physicochemical
Conditions: transforms into pyroracemic acid or alpha chloroacrylic acid
Excerpt: The impurity identification of 2,2-dichloropropionic acid, taken as an example, has been conducted using the method of NMR spectroscopy on the ^1H and ^13C nuclei, one of the most informative methods, which allows to determine the composition of each impurity even if the numerous related compounds are found in the sample.

SMILES: CC(Cl)(Cl)C(=O)O [2,2-dichloropropionic acid]
- Stability to daylight and prolonged storage: daylight-sensitive
